Data from EP4678638A1, “NEW E3 UBIQUITIN LIGASE LIGAND, PROTEIN DEGRADATION AGENT AND USE THEREOF” (priority 2023, dated 2024).
Read-outs that look alike come from different tables or passages of the source.

Legend:
MGC-803 = test: CCK-8 proliferation, MGC-803 (heads: MGC80-3, MGC803); type: cell-based, Human; details: Table B10, compounds designed based on the IRAK4 inhibitors, MGC803 cells, read-out: Inhibitory activity (IC50, nM) on tumor cell proliferation, MGC803
Protocol: (§1) The tumor cells used herein were cultured in a cell culture medium listed in table A1 at 37°C in an incubator with 5% CO2. Prior to experimentation, all cell lines used were correctly identified by STR profiling, and tested negative for mycoplasma contamination using a mycoplasma detection kit through routine screenings. Table A1. Tumor cells and cell culture medium used in the present disclosure
(§2) IC50 values of the compounds of the present disclosure (including the compounds in Table 1, and compounds of examples) were measured using the Meilun Cell Counting Kit-8 kit from Dalian Meilun Biotech Co., Ltd. Assay details are as follows: tumor cells were seeded in a 96-well plate at a density listed in Table A2. After 24h, 100 µL of the inoculated cells were treated with 0.5µL of the compounds of the present disclosure (including the compounds in Tables 1 and 2, and compounds of examples) at 10 different successively decreasing concentrations (starting at the highest concentration of 10µM; 5-fold serial dilutions). After the cells were treated with the compounds of the present disclosure for a period of time, the cell viability detection reagent was added to the culture medium for cell viability assessment according to the instructions provided with the CCK-8 kit. […] The growth inhibition of the compounds of the present disclosure on cells was plotted by Prism Graphpad software, and the IC50 values of the compounds of the present disclosure were calculated therefrom. […] Seeding protocol and treatment time for tumor cells

SR = test: CCK-8 proliferation, SR; type: cell-based, Human; details: Table B10, compounds designed based on the IRAK4 inhibitors, SR cells, read-out: Inhibitory activity (IC50, nM) on tumor cell proliferation, SR
Summary of the method: (§3)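 Tumor cells were cultured at 37°C with 5% CO2, seeded, and after 24h treated with compounds at 10 concentrations starting at 10µM (5-fold serial dilutions).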

MM.1S = test: CCK-8 proliferation, MM.1S; type: cell-based; details: Table B10, compounds designed based on the IRAK4 inhibitors, MM.1S cells, read-out: Inhibitory activity (IC50, nM) on tumor cell proliferation, MM.1S
Summary of the method: as §3

Jurkat = test: CCK-8 proliferation, Jurkat; type: cell-based, Human; details: Table B10, compounds designed based on the IRAK4 inhibitors, Jurkat cells, read-out: Inhibitory activity (IC50, nM) on tumor cell proliferation, Jurkat
Summary of the method: as §3

H1299 = test: CCK-8 proliferation, H1299; parameters: species or system Human; details: Table B10, compounds designed based on the IRAK4 inhibitors, H1299 cells, read-out: Inhibitory activity (IC50, nM) on tumor cell proliferation, H1299
Protocol: as §1, §2

IRAK4 = target: T1, IRAK4 (Homo sapiens, UniProt Q9NWZ3); test: Western blot degradation of IRAK4 (hPBMC); type: cell-based; details: Table D1
T1 construct: evaluate the effects of the compounds of the present disclosure on the expression of target proteins in cells; endogenous in cells; host or cells: hPBMC
T1 sequence (Q9NWZ3 1-460): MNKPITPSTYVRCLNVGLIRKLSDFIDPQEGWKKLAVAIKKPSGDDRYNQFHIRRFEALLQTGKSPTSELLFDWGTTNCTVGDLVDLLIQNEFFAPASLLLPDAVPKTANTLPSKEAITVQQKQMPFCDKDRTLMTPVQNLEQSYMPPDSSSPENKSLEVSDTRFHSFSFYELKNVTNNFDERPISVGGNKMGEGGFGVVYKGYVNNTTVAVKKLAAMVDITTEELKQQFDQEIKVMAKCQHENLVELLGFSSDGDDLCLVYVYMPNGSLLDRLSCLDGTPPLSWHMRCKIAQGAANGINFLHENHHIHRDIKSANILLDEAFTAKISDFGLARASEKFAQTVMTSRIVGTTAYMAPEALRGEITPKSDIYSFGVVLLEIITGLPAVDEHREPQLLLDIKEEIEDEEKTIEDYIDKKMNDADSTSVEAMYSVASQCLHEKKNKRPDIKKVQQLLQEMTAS
Summary of the method: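 After compound exposure, cells were harvested and lysates run on SDS-PAGE, transferred to nitrocellulose and probed with antibodies. Remaining target (%) was computed from band grayscale relative to an internal control protein and normalised; degradation (%) was 100% minus that.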

DU-145 = test: CCK-8 proliferation, DU-145; type: cell-based; details: Homo sapiens, 96 hours, read-out: Inhibitory activity (IC50) on tumor cell proliferation, DU-145
Protocol: as §1, §2

SW620 = test: CCK-8 proliferation, SW620; type: cell-based; details: Homo sapiens, SW-620; CCK-8; 96 hours; read-out: Inhibitory activity (IC50) on tumor cell proliferation, SW620
Summary of the method: as §3

LNcap = test: CCK-8 proliferation, LNcap; type: cell-based; details: Homo sapiens, LNCaP; CCK-8; 96 hours; read-out: Inhibitory activity (IC50) on tumor cell proliferation, Lncap
Protocol: as §1, §2

SMILES | IC50 (MGC-803; Homo sapiens, MGC-803) | IC50 (SR; Homo sapiens) | IC50 (MM.1S; Homo sapiens, MM1.S) | IC50 (Jurkat; Homo sapiens) | IC50 (H1299; Homo sapiens, NCI-H1299) | Degradation of substrate protein IRAK4 (substrate protein remaining %) (IRAK4) | other results
O=C1CCN(c2ccc(CN3CCN(c4ccc5c(c4)nc(NC(=O)c4cccc(C(F)(F)F)c4)n5[C@H]4CC[C@@H](CO)CC4)CC3)nc2)C(=O)N1 [GT-04986, N-(5-(4-((5-(2,4-dioxotetrahydropyrimidin-1(2H)-yl)pyridin-2-yl)methyl)piperazin-1-yl)-1-((1s,4s)-4-(hydroxymethyl)cyclohexyl) -1H-benzo[d]imidazol-2-yl)-3-(trifluoromethyl)benzamide] | 100 to 500 nM | 100 to 500 nM | 100 to 500 nM | 100 to 500 nM | 100 to 500 nM | A (A is defined as 0% ≤ substrate protein remaining % ≤ 80%) | –
O=C1CCN(c2ccc(CN3CCN(c4ccc5c(c4)nc(NC(=O)c4cccc(C(F)(F)F)c4)n5[C@H]4CC[C@@H](CO)CC4)CC3)cn2)C(=O)N1 [GT-04987, N-(5-(4-((6-(2,4-dioxotetrahydropyrimidin-1(2H)-yl)pyridin-3-yl)methyl)piperazin-1-yl)-1-((1s,4s)-4-(hydroxymethyl)cyclohexyl) -1H-benzo[d]imidazol-2-yl)-3-(trifluoromethyl)benzamide] | – | – | – | – | – | – | IC50 (MGC-803): 100 to 500 nM; IC50 (SR): 100 to 500 nM; IC50 (MM.1S): 100 to 500 nM; IC50 (Jurkat): 100 to 500 nM; IC50 (H1299): 100 to 500 nM
O=C1CCN(c2ccc(CN3CCC(n4cc(NC(=O)c5coc(-c6ccnc(NCC7CC7)c6)n5)c(C(F)F)n4)CC3)cn2)C(=O)N1 [GT-04959, 2-(2-((cyclopropylmethyl)amino)pyridin-4-yl)-N-(3-(difluoromethyl)-1-(1-((6-(2,4-dioxotetrahydropyrimidin-1(2H)-yl)pyridin-3-yl)methyl)piperidin-4-yl)-1H-pyrazol-4-yl)oxazole-4-carboxamide] | – | – | 500 to 1000 nM | – | 500 to 1000 nM | – | –
O=C1CCN(c2cccc(CN3CCN(c4ccc(-n5cc(NC(=O)c6coc(-c7ccnc(NCC8CC8)c7)n6)c(C(F)F)n5)cc4)CC3)c2)C(=O)N1 [GT-04968, 2-(2-((cyclopropylmethyl)amino)pyridin-4-yl)-N-(3-(difluoromethyl)-1-(4-(4-(3-(2,4-dioxotetrahydropyrimidin-1(2H)-yl)benzyl)piperazin-1-yl)phenyl)-1H-pyrazol-4-yl)oxazole-4-carboxamide] | 100 to 500 nM | 100 to 500 nM | 10 to 50 nM | 100 to 500 nM | 100 to 500 nM | A (A is defined as 0% ≤ substrate protein remaining % ≤ 80%) | –
O=C1CCN(c2cccc(COc3ccc(Cl)cc3-c3nc4cc(C(F)(F)F)cc(Cl)c4[nH]3)c2)C(=O)N1 [GT-06480, 1-(3-((4-chloro-2-(7-chloro-5-(trifluoromethyl)-1H-benzo[d]imidazol-2-yl)phenoxy)methyl)phenyl)dihydropyrimidine-2,4(1H,3H)-dione] | – | – | – | – | – | – | IC50 (DU-145): 100 to 500 nM
O=C1CCN(c2ccc(CN3CCN(c4ccc(-n5cc(NC(=O)c6coc(-c7ccnc(NCC8CC8)c7)n6)c(C(F)F)n5)cc4)CC3)cn2)C(=O)N1 [GT-04970, 2-(2-((cyclopropylmethyl)amino)pyridin-4-yl)-N-(3-(difluoromethyl)-1-(4-(4-((6-(2,4-dioxotetrahydropyrimidin-1(2H)-yl)pyridin-3-yl)methyl)piperazin-1-yl)phenyl)-1H-pyrazol-4-yl)oxazole-4-carboxamide] | 50 to 100 nM | 50 to 100 nM | 50 to 100 nM | 100 to 500 nM | 100 to 500 nM | A (A is defined as 0% ≤ substrate protein remaining % ≤ 80%) | –
O=C1CCC(c2ccc(CN3CCN(c4ccc5c(c4)nc(NC(=O)c4cccc(C(F)(F)F)c4)n5C4CCC(CO)CC4)CC3)cc2)C(=O)N1 (stereo not drawn) [GT-04981, N-(5-(4-(4-(2,6-dioxopiperidin-3-yl)benzyl)piperazin-1-yl)-1-((1s,4s)-4-(hydroxymethyl)cyclohexyl) -1H-benzo[d]imidazol-2-yl)-3-(trifluoromethyl)benzamide] | 500 to 1000 nM | 100 to 500 nM | 100 to 500 nM | 500 to 1000 nM | 500 to 1000 nM | A (A is defined as 0% ≤ substrate protein remaining % ≤ 80%) | –
O=C1CCC(Nc2cccc(CN3CCN(c4ccc(-n5cc(NC(=O)c6coc(-c7ccnc(NCC8CC8)c7)n6)c(C(F)F)n5)cc4)CC3)c2)C(=O)N1 (stereo not drawn) [GT-04969, 2-(2-((cyclopropylmethyl)amino)pyridin-4-yl)-N-(3-(difluoromethyl)-1-(4-(4-(3-((2,6-dioxopiperidin-3-yl)amino)benzyl)piperazin-1-yl)phenyl)-1H-pyrazol-4-yl)oxazole-4-carboxamide] | 100 to 500 nM | 100 to 500 nM | 100 to 500 nM | 100 to 500 nM | 100 to 500 nM | A (A is defined as 0% ≤ substrate protein remaining % ≤ 80%) | –
O=C1CCN(c2ccc(COc3ccc(Cl)cc3-c3nc4cc(C(F)(F)F)cc(Cl)c4[nH]3)cc2)C(=O)N1 [GT-06479, 1-(4-((4-chloro-2-(7-chloro-5-(trifluoromethyl)-1H-benzo[d]imidazol-2-yl)phenoxy)methyl)phenyl)dihydropyrimidine-2,4(1H,3H)-dione] | – | – | – | – | – | – | IC50 (DU-145): 100 to 500 nM
O=C1CCN(c2ccc(COc3ccc(Cl)cc3-c3nc4cc(C(F)(F)F)cc(Cl)c4[nH]3)cn2)C(=O)N1 [GT-06481, 1-(5-((4-chloro-2-(7-chloro-5-(trifluoromethyl)-1H-benzo[d]imidazol-2-yl)phenoxy)methyl)pyridin-2-yl)dihydropyrimidine-2,4(1H,3H)-dione] | – | – | – | – | – | – | IC50 (DU-145): 50 to 100 nM
O=C1CCN(c2ccc(CN3CCN(c4ccc5c(c4)nc(NC(=O)c4cccc(C(F)(F)F)c4)n5[C@H]4CC[C@@H](CO)CC4)CC3)cc2)C(=O)N1 [GT-04982, N-(5-(4-(4-(2,4-dioxotetrahydropyrimidin-1(2H)-yl)benzyl)piperazin-1-yl)-1-((1s,4s)-4-(hydroxymethyl)cyclohexyl) -1H-benzo[d]imidazol-2-yl)-3-(trifluoromethyl)benzamide] | 100 to 500 nM | 100 to 500 nM | 50 to 100 nM | 100 to 500 nM | 100 to 500 nM | A (A is defined as 0% ≤ substrate protein remaining % ≤ 80%) | –
CN(Cc1ccc(C2CCC(=O)NC2=O)c(F)c1)C1CCN(c2ncc(C(=O)Nc3ccc(OC(F)(F)Cl)cc3)cc2-c2cc[nH]n2)CC1 (stereo not drawn) [GT-04027, N-(4-(chlorodifluoromethoxy)phenyl)-6-(4-((4-(2,6-dioxopiperidin-3-yl)-3-fluorobenzyl)(methyl)amino)piperidin-1-yl)-5-(1H-pyrazol-3-yl)nicotinamide] | – | – | – | – | – | – | IC50 (SW620): 100 to 500 nM; IC50 (LNcap): 100 to 500 nM
